Reference: article PMC8800111 (The Journal of Biological Chemistry, 2021)

Tested on: nuclear pSTAT3 and total STAT3 in U3A cells
Assay: Nuclear and cytoplasmic fractionation immunoblotting in OSM-stimulated U3A cells
Format: cell-based, human
Conditions: 10 μM 1 h, 10 ng/ml OSM 30 min
Procedure: It should be noted that, given the variability inherent in chromatin immunoprecipitation (IP), few of the individual changes in binding reached statistical significance. However, the trend in each of the five genes was identical.
B, MDA-MB-468 cells were treated with 5 μM PYR for 24 h. Nuclear and cytoplasmic fractions were analyzed by immunoblotting with the indicated antibodies. PARP and tubulin were used as nuclear and cytoplasmic markers, respectively. C, U3A human fibrosarcoma cells stably expressing STAT3-dependent luciferase were pretreated with 10 μM PYR for 1 h and stimulated with 10 ng/ml oncostatin M (OSM) for 30 min. Nuclear and cytoplasmic fractions were analyzed by immunoblotting with the indicated antibodies. […] D, SKBR3 cells were treated with 10 μM PYR for 1 h, stimulated with 10 ng/ml leukemia inhibitory factor (LIF) for 30 min, and analyzed by chromatin immunoprecipitation with antibodies to STAT3 and RNA pol II (pol II). Binding at the indicated target genes was assessed by quantitative RT–PCR. Data are expressed as percent of input. […]
Cells were lysed on ice for 15 min in either radioimmunoprecipitation assay lysis buffer (Boston BioProducts) or EBC lysis buffer (50 mM Tris [pH 8.0], 250 mM NaCl, and 0.5% Nonidet-P40 [NP-40]) containing phosphatase and complete protease inhibitors (Roche). […] Immunoblots were developed, and band intensity was quantified using Fiji ([42]).

CCc1nc(N)nc(N)c1-c1ccc(Cl)cc1 [pyrimethamine]
OSM-stimulated nuclear pSTAT3 or total STAT3: no effect
